“Also recorded” adds a separate entry of the source. Read-outs that look alike come from different tables or passages of the source.
Legend:
COV318 cells = test: CellTiter Glo cell proliferation assay; format: cell-based, human; conditions: CCNE1 amplified, six days
Method: Plates were returned to the incubator for six additional days. On day six post dosing, plates were removed and treated with CellTiter Glo reagent following manufacturer's specifications. Plates were incubated 45 minutes at room temperature and run on Biotek luminometer with 1 sec/well detection. Results were converted to Microsoft Excel and transferred to Graphpad Prism for analysis. […] These cell types are distinguished by either gained of cyclin E1 expression or activation (Kuramochi) or intrinsic amplification of cyclin E1 (OVCAR-3, COV318).

[1] = Electrocardiogram evaluations in 28-day repeat-dose toxicity study; format: in vivo, dogs; conditions: any dose level
Excerpt: Safety pharmacology studies described more fully below included a functional observational battery (FOB) testing in a 28-day repeat-dose toxicity study in rats, electrocardiogram (ECG) evaluations in a 28-day repeat-dose toxicity study in dogs, and a single-dose respiratory safety pharmacology study in rats.

human OCT1 = target: T1, human OCT1 (Homo sapiens, UniProt O15245); test: SLC transporter inhibition in HEK293 cells; format: in vitro ADME
T1 construct: expressed in transfected cells; host or cells: HEK293
T1 sequence (O15245 1-554): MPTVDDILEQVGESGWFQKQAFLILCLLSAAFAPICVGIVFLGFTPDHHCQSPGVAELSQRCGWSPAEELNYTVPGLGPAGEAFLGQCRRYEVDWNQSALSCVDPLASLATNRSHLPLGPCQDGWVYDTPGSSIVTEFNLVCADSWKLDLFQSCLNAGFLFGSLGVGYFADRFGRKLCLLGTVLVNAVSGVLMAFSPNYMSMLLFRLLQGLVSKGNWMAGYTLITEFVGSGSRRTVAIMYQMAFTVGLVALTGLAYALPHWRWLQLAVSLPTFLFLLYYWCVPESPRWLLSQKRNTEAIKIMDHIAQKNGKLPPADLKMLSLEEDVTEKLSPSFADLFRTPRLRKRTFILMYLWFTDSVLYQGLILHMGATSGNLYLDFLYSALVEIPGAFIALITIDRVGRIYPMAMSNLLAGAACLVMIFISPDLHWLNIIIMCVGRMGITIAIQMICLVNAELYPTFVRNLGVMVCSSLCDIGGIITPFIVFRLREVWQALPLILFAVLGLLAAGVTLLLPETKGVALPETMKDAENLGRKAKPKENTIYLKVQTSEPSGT

human OCT2 = target: T2, human OCT2 (Homo sapiens, UniProt O15244); test: SLC transporter inhibition in HEK293 cells; format: in vitro ADME
T2 construct: expressed in transfected cells; host or cells: HEK293
T2 sequence (O15244 1-555): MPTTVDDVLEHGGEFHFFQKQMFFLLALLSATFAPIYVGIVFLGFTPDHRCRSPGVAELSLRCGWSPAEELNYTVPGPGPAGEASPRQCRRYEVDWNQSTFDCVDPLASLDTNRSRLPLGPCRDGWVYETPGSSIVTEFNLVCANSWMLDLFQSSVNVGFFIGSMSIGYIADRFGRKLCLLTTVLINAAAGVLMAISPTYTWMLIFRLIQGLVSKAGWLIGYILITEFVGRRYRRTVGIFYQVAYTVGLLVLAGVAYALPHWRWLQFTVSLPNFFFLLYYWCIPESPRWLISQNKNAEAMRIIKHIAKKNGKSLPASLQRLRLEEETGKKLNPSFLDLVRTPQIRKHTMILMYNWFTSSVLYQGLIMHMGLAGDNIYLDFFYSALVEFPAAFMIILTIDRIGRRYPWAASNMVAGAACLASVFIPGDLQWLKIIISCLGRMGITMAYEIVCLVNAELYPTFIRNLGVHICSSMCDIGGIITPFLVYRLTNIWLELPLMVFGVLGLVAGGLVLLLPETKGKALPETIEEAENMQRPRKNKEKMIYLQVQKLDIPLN

[2] = test system: BALB/c-3T3 mouse fibroblasts; test: In vitro 3T3 NRU phototoxicity test; format: cell-based; conditions: UVA 2.5 J/cm^2 vs dark, Neutral Red
Method: BALB/c-3T3 mouse fibroblasts (ATCC) were seeded in 96-well plates at 15,000 cells per well, and grown for 24 hr in DMEM supplemented with 10% FBS, 100 U/mL penicillin, and 100 mg/L streptomycin at 37° C., humidified with 5% CO2.
All test articles were solubilized and serially diluted in DMSO, with the exception of histidine, which was solubilized and diluted in HBSS. All DMSO stocks were diluted in HBSS at the final testing concentrations. The final concentration of DMSO for all test articles was 1%. At the start of the assay, the growth medium was removed from the plates and replaced with test article dilutions. Six replicates were used for each concentration and two plates were prepared for each test article. The cells were incubated in the dark at 37° C., humidified with 5% CO2 with test articles for 1 hr. After the 1 hr incubation period, one plate of each test article was exposed to UVA light, 2.5 J/cm^2 over 18 min which is sufficient to induce a phototoxic response, while the second plate was incubated in the dark at room temperature for the same period of time. At the end of this incubation period, both plates were washed with PBS and fresh medium was added to each well. The plates were incubated at 37° C., humidified with 5% CO2 overnight. […] Cellular Neutral Red was measured by its absorbance at 540 nm.

[3] = test system: MMTV-rtTA/tetO-HER2 tumors; test: Abemaciclib-resistant HER2-overexpressing breast cancer mouse model; format: in vivo, mice; conditions: Compound I 50 mg/kg BID + abemaciclib 50 mg/kg BID, out to day 38
Method: Breast cancer model mice overexpressing HER2 (MMTV-rtTA/tetO-HER2) were treated with abemaciclib until resistance to treatment was observed. […] The test agents were delivered at 5 mL/kg by oral gavage.

MATE1 = MATE1 (Homo sapiens, UniProt Q96FL8); test: SLC transporter inhibition in HEK293 cells
MATE1, sequence (Q96FL8 whole entry): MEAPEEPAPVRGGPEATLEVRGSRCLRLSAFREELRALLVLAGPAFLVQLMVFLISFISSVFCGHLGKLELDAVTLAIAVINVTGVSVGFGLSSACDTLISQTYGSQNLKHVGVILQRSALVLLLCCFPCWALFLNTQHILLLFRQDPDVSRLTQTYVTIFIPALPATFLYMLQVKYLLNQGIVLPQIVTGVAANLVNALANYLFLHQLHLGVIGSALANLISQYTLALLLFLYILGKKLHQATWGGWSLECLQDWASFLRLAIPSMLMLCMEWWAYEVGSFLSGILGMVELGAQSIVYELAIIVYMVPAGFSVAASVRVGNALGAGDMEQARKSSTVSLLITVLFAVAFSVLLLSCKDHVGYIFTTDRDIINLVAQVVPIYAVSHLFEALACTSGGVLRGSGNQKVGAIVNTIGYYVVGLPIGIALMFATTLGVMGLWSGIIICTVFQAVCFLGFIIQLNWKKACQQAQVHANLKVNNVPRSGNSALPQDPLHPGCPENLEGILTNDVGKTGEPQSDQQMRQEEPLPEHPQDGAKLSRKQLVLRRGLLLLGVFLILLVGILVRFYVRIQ

NS(=O)(=O)c1ccc(Nc2ncc3cc4n(c3n2)C2(CCCCC2)C(=O)NN4)cc1 [Compound I]
cell viability compared with palbociclib (COV318 cells): potently decreases cell viability | ECGs [1]: did not affect; also recorded: within normal limits | Maximum Percent inhibition (human OCT1; OCT1, HEK293 cells): 89% | IC50 (human OCT1; OCT1, HEK293 cells, read-out: IC50): 5.5 µM | IC50 (human OCT1; read-out: OCT1 IC50): 5.5 µM | Maximum Percent inhibition (human OCT2; OCT2, HEK293 cells): 49% | IC50 (human OCT2; OCT2, HEK293 cells, estimated, read-out: IC50): 17.1 µM | IC50 (human OCT2; read-out: OCT2 IC50): 17.1 µM | phototoxicity [2]: negative for causing phototoxicity | tumor growth [3]: substantially reduced tumor growth relative to either agent administered alone | IC50 (MATE1; MATE1 IC50): 13.3 µM | inhibition at 20 μM (MATE1; human, HEK293 cells expressing MATE1, probe metformin (10 μM)): 62%

From patent publication US20250199015A1, “CYCLIN-DEPENDENT KINASE 2 INHIBITORS FOR MEDICAL TREATMENT” (INCYCLIX BIO, LLC, priority 2022, published 2025)
